Measurements as given in US7960556B2, “Thiadiazole derivatives for the treatment of neuro-degenerative diseases” (NV reMYND, priority 2006, dated 2011).

System: α-synuclein cytotoxicity in M17-SYNwt cells
Experiment: α-synuclein cytotoxicity assay: LDH leakage from paraquat-treated M17-SYNwt neuroblastoma cells;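 note: paraquat at 32 mM co-added with compound, 40 h exposure, LDH activity released into the culture medium measured, references are DMSO-only cells and paraquat plus DMSO cells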
Settings: Homo sapiens, Neuroblastoma cell; for Emax: read-out: % Inhib.

| SMILES | EC50 [nM] | Emax [%] |
| --- | --- | --- |
| CCc1ccc(NC(=O)N2CCN(c3nc(Cc4ccc(F)cc4)ns3)CC2C)cc1 (centres unmarked) [compound 11, N-(4-ethylphenyl)-4-[3-(4-fluorobenzyl)-1,2,4-thiadiazol-5-yl]-2-methylpiperazine-1-carboxamide] | 690 | 73 |
| CC1CN(c2nc(Cc3ccc(F)cc3)ns2)CCN1C(=O)c1ccc(Br)cc1 (centres unmarked) [compound 135, 1-(4-bromobenzoyl)-4-[3-(4-fluorobenzyl)-1,2,4-thiadiazol-5-yl]-2-methylpiperazine] | 310 | 73 |
| O=C(Cc1ccc(F)cc1)N1CCN(c2nc(Cc3ccc(F)cc3)ns2)CC1 [compound 2, 4-(4-fluorophenylacetyl),-1-[3-(4-fluorobenzyl)-1,2,4-thiadiazol-5-yl]piperazine] | 250 | 54 |
| COc1ccc(S(=O)(=O)N2CCN(c3nc(Cc4ccccc4)ns3)CC2)cc1 [compound 199, 1-[4-methoxyphenylsulfonyl]-4-[3-benzyl-1,2,4-thiadiazol-5-yl]piperazine] | 3.8 | 38 |
| CCc1ccc(C(=O)N2CCN(c3nc(Cc4ccc(C)cc4)ns3)CC2C)cc1 (centres unmarked) [compound 147, 1-(4-ethylbenzoyl)-4-[3-(4-methylbenzyl)-1,2,4-thiadiazol-5-yl]-2-methylpiperazine] | 840 | 88 |
| Cc1ccc(C(=O)NCCN2CCN(c3nc(Cc4ccc(F)cc4)ns3)CC2)cc1 [compound 101, 4-methyl-N-{2-[4-[3-(4-fluorobenzyl)-1,2,4-thiadiazol-5-yl]piperazin-1-yl]ethyl}benzamide] | 1940 | 68 |
| Cc1ccc(Cc2nsc(N3CCN(S(=O)(=O)c4ccc(Cl)cc4)C(C)C3)n2)cc1 (centres unmarked) [compound 34, 1-[4-chlorophenylsulfonyl]-4-[3-(4-methylbenzyl)-1,2,4-thiadiazol-5-yl]-2-methylpiperazine] | 65.7 | 66 |
| CC1CN(c2nc(Cc3ccc(F)cc3)ns2)CCN1C(=O)c1cccc(Cl)c1 (centres unmarked) [compound 122, 1-(3-chlorobenzoyl)-4-[3-(4-fluorobenzyl)-1,2,4-thiadiazol-5-yl]-2-methylpiperazine] | 140 | 92 |
| CC1CN(c2nc(Cc3ccc(F)cc3)ns2)CCN1C(=O)c1ccccc1Br (centres unmarked) [compound 148, 1-(2-bromobenzoyl)-4-[3-(4-fluorobenzyl)-1,2,4-thiadiazol-5-yl]-2-methylpiperazine] | 860 | 56 |
| Clc1ccc(Cc2nsc(N3CCN(C/C=C/c4ccccc4)CC3)n2)cc1 [compound 92, 1-[3-phenylprop-2-enyl]-4-[3-(4-chlorobenzyl)-1,2,4-thiadiazol-5-yl]piperazine] | 750 | 69 |
| CCCCCCc1ccc(C(=O)NCCN2CCN(c3nc(Cc4ccc(F)cc4)ns3)CC2)cc1 [compound 96, 4-hexyl-N-{2-[4-[3-(4-fluorobenzyl)-1,2,4-thiadiazol-5-yl]piperazin-1-yl]ethyl}benzamide] | 800 | 72 |
| Cc1ccc(Cc2nsc(N3CCN(S(=O)(=O)c4ccc(C(C)(C)C)cc4)CC3)n2)cc1 [compound 67, 1-[4-tert-butylphenylsulfonyl]-4-[3-(4-methylbenzyl)-1,2,4-thiadiazol-5-yl]piperazine] |  | 41 |
| CC1CN(c2nc(Cc3ccc(F)cc3)ns2)CCN1C(=O)Nc1ccc(F)cc1F (centres unmarked) [compound 23, N-(2,4-difluorophenyl)-4-[3-(4-fluorobenzyl)-1,2,4-thiadiazol-5-yl]-2-methylpiperazine-1-carboxamide] | 940 | 66 |
| CC1CN(c2nc(Cc3ccc(F)cc3)ns2)CCN1C(=O)c1ccc2ccccc2c1 (centres unmarked) [compound 132, 1-(2-naphthoyl)-4-[3-(4-fluorobenzyl)-1,2,4-thiadiazol-5-yl]-2-methylpiperazine] | 260 | 74 |
| CCCCS(=O)(=O)N1CCN(c2nc(Cc3ccc(C)cc3)ns2)CC1 [compound 83, 1-(butylsulfonyl)-4-[3-(4-methylbenzyl)-1,2,4-thiadiazol-5-yl]piperazine] | 2640 | 36 |
